Measurements from the supplement of paper PMC11208160.

Assay: recombinant UMI read abundance after kanamycin selection (control-corrected) (log10(CPM+1)); higher = more efficient recombination; extreme values may be limits of the assay; sequences stand for … in AGTGCAGAGAAAATCGGCCAGTTTTCTCTGCCTGCAGTCCGCATGCCGTGGGACCCCTTGGGTTCTAACCTGTTGCCTAGATTTATGCAGCGGACTGCCTTTCTCCCAAAGTGATAAACCGG…AGGTTGGTTTCACT; site = the 11-nt donor
Summary of the method: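 Values are reported as log10(CPM+1), obtained by converting sequencing counts to CPM, averaging replicates and scaling by control-derived factors. The counts came from recombinant UMIs amplified by PCR across the donor–target junction. These UMIs came from a pooled Escherichia coli screen of donor and donor-binding-loop pairs for the IS621 bridge recombinase, plated with IPTG (0.07 mM) plus kanamycin or left unselected, in two replicates each.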
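Also: IS621 bridge recombinase in Escherichia coli cells against a fixed T5 target plasmid.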

Sequence	recombinant UMI read abundance (log10)
GCGCATGCATGGACCGGTTTTCCCGGTAATCCGTATTTGGT (site GAGCATGCTAC)	0.595
GCGCATGCATGGACCGGTTTTCCCGGTAATCCGTATTTGGT (site GCGCATGCTAC)	1.14
GCGCATGCATGGACCGGTTTTCCCGGTAATCCGTATTTGGT (site GGGCATGCTAC)	0.0133
GCGCATGCATGGACCGGTTTTCCCGGTAATCCGTATTTGGT (site GTGCATGCTAC)	0.622
GCGCCTCCATGGACCGGTTTTCCCGGTAATCCGTATTTGGG (site GCGCCTCCTCC)	0.0195
GCGCGCTCATGGACCGGTTTTCCCGGTAATCCGTATTTGAA (site GCGCGCTCTTT)	1.82
GCGCTCACATGGACCGGTTTTCCCGGTAATCCGTATTTGCC (site GCGCTCACTGG)	2.47
GCGGACACATGGACCGGTTTTCCCGGTAATCCGTATTTGCT (site GCGGACACTAG)	2.44
GCGGAGGCATGGACCGGTTTTCCCGGTAATCCGTATTTGTG (site GAGGAGGCTCA)	0.367
GCGGAGGCATGGACCGGTTTTCCCGGTAATCCGTATTTGTG (site GCGGAGGCTCA)	1.37
GCGGAGGCATGGACCGGTTTTCCCGGTAATCCGTATTTGTG (site GGGGAGGCTCA)	0.333
GCGGAGGCATGGACCGGTTTTCCCGGTAATCCGTATTTGTG (site GTGGAGGCTCA)	0.832
GCGGCATCATGGACCGGTTTTCCCGGTAATCCGTATTTGTC (site GCGGCATCTGA)	2.21
GCGGGCGCATGGACCGGTTTTCCCGGTAATCCGTATTTGAT (site GCGGGCGCTAT)	1.44
GCGGGTGCATGGACCGGTTTTCCCGGTAATCCGTATTTGCC (site GCGGGTGCTGG)	1.43
GCGGTTCCATGGACCGGTTTTCCCGGTAATCCGTATTTGTC (site GCGGTTCCTGA)	0
GCGTAGGCATGGACCGGTTTTCCCGGTAATCCGTATTTGCT (site GCGTAGGCTAG)	2.51

Sequence	recombinant UMI read abundance (log10)
GCGTCAACATGGACCGGTTTTCCCGGTAATCCGTATTTGCG (site GCGTCAACTCG)	0.00614
GCGTCGTCATGGACCGGTTTTCCCGGTAATCCGTATTTGTT (site GCGTCGTCTAA)	0.947
GCTACCTCATGGACCGGTTTTCCCGGTAATCCGTATTTGTC (site GCTACCTCTGA)	2.17
GCTACGCCATGGACCGGTTTTCCCGGTAATCCGTATTTGTA (site GCAACGCCTTA)	0.00895
GCTACGCCATGGACCGGTTTTCCCGGTAATCCGTATTTGTA (site GCCACGCCTTA)	0.0278
GCTACGCCATGGACCGGTTTTCCCGGTAATCCGTATTTGTA (site GCGACGCCTTA)	0.162
GCTACGCCATGGACCGGTTTTCCCGGTAATCCGTATTTGTA (site GCTACGCCTTA)	0.343
GCTACTCCATGGACCGGTTTTCCCGGTAATCCGTATTTGCC (site GCTACTACTGG)	0
GCTACTCCATGGACCGGTTTTCCCGGTAATCCGTATTTGCC (site GCTACTCCTGG)	0
GCTACTCCATGGACCGGTTTTCCCGGTAATCCGTATTTGCC (site GCTACTGCTGG)	0
GCTACTCCATGGACCGGTTTTCCCGGTAATCCGTATTTGCC (site GCTACTTCTGG)	0.0501
GCTACTGCATGGACCGGTTTTCCCGGTAATCCGTATTTGGC (site GCTACTGCTGA)	0.76
GCTACTGCATGGACCGGTTTTCCCGGTAATCCGTATTTGGC (site GCTACTGCTGC)	1.92
GCTACTGCATGGACCGGTTTTCCCGGTAATCCGTATTTGGC (site GCTACTGCTGG)	0
GCTACTGCATGGACCGGTTTTCCCGGTAATCCGTATTTGGC (site GCTACTGCTGT)	1.54
GCTAGAACATGGACCGGTTTTCCCGGTAATCCGTATTTGGC (site GATAGAACTGC)	0
GCTAGAACATGGACCGGTTTTCCCGGTAATCCGTATTTGGC (site GCTAGAACTGC)	2.02
